Results reported in the NIST ThermoML archive (doi:10.1016/j.tca.2015.02.020).

Experiment: molar heat capacity at constant pressure; xn = mol fraction of the nth substance listed
Conditions: 101 kPa, Liquid, Small sample (50 mg) DSC

CC(O)CN (stereo unspecified) [1-amino-2-propanol] + O
Conditions	molar heat capacity at constant pressure [J/K/mol]
207.73 K, x1 = 0.68	127.89
209.98 K, x1 = 0.19	80.53
209.98 K, x1 = 0.26	88.72
210.13 K, x1 = 0.68	136.98
210.14 K, x1 = 0.16	76.29
212.31 K, x1 = 0.16	80.64
212.31 K, x1 = 0.19	81.68
212.31 K, x1 = 0.26	87.41
212.33 K, x1 = 0.15	76.55
212.46 K, x1 = 0.68	129.03
213.3 K, x1 = 0.19	80.82
213.3 K, x1 = 0.26	89.38
213.45 K, x1 = 0.16	76.84
213.45 K, x1 = 0.68	137.55
217.04 K, x1 = 0.19	82.55
217.04 K, x1 = 0.26	88.06
217.05 K, x1 = 0.16	81.72
217.07 K, x1 = 0.15	77.88
217.19 K, x1 = 0.68	129.59
219.93 K, x1 = 0.19	82.26
219.93 K, x1 = 0.26	90.36
220.08 K, x1 = 0.68	136.98
220.09 K, x1 = 0.16	76.56
221.78 K, x1 = 0.19	83.7
221.79 K, x1 = 0.16	83.08
221.79 K, x1 = 0.26	89.71
221.81 K, x1 = 0.15	79.21
221.94 K, x1 = 0.68	130.73
223.25 K, x1 = 0.19	82.84
223.25 K, x1 = 0.26	91.35
226.53 K, x1 = 0.16	84.44
226.53 K, x1 = 0.19	84.86
226.53 K, x1 = 0.26	91.02
226.55 K, x1 = 0.15	80.8
226.68 K, x1 = 0.68	132.44
229.89 K, x1 = 0.26	92.99
231.26 K, x1 = 0.19	86.01
231.26 K, x1 = 0.26	92.34
231.27 K, x1 = 0.16	85.52
231.3 K, x1 = 0.15	82.4
231.42 K, x1 = 0.68	133.57
233.2 K, x1 = 0.26	94.31
236.01 K, x1 = 0.16	86.88
236.01 K, x1 = 0.19	87.46
236.01 K, x1 = 0.26	93.65
236.04 K, x1 = 0.15	83.99
236.16 K, x1 = 0.68	135.28
239.85 K, x1 = 0.26	96.28
240.75 K, x1 = 0.16	88.51
240.75 K, x1 = 0.19	88.61
240.75 K, x1 = 0.26	94.96
240.78 K, x1 = 0.15	85.59
240.9 K, x1 = 0.68	136.98
243.17 K, x1 = 0.26	97.59
245.5 K, x1 = 0.16	89.6
245.5 K, x1 = 0.19	90.05
245.5 K, x1 = 0.26	96.61
245.53 K, x1 = 0.15	87.18
245.64 K, x1 = 0.68	138.69
249.82 K, x1 = 0.26	99.89
250.25 K, x1 = 0.16	90.95
250.25 K, x1 = 0.19	91.5
250.25 K, x1 = 0.26	97.92
250.28 K, x1 = 0.15	88.51
250.4 K, x1 = 0.68	140.39
253.15 K, x1 = 0.26	101.21
255 K, x1 = 0.16	91.77
255 K, x1 = 0.19	92.36
255 K, x1 = 0.26	99.24
255.03 K, x1 = 0.15	89.84
255.14 K, x1 = 0.68	142.67
259.75 K, x1 = 0.16	92.85
259.75 K, x1 = 0.19	93.81
259.75 K, x1 = 0.26	100.55
259.78 K, x1 = 0.15	90.9
259.8 K, x1 = 0.19	95.54
259.8 K, x1 = 0.26	103.51
259.89 K, x1 = 0.68	144.37
259.95 K, x1 = 0.16	93.4
259.95 K, x1 = 0.68	154.04
259.96 K, x1 = 0.15	93.83
263.13 K, x1 = 0.19	96.69
263.13 K, x1 = 0.26	104.82
263.27 K, x1 = 0.68	155.17
263.28 K, x1 = 0.16	94.48
263.29 K, x1 = 0.15	94.62
264.5 K, x1 = 0.16	93.94
264.5 K, x1 = 0.19	94.96
264.5 K, x1 = 0.26	101.87
264.53 K, x1 = 0.15	92.23
264.64 K, x1 = 0.68	146.65
269.26 K, x1 = 0.16	94.48
269.26 K, x1 = 0.19	95.83
269.26 K, x1 = 0.26	103.18
269.29 K, x1 = 0.15	93.29
269.4 K, x1 = 0.68	148.35
269.78 K, x1 = 0.19	98.71
269.79 K, x1 = 0.26	107.45
269.93 K, x1 = 0.68	158.01
269.94 K, x1 = 0.16	96.66
269.95 K, x1 = 0.15	96.75
273.12 K, x1 = 0.19	99.87
273.13 K, x1 = 0.26	108.44
273.27 K, x1 = 0.68	159.15
273.29 K, x1 = 0.15	97.28
273.29 K, x1 = 0.16	97.74
274.05 K, x1 = 0.16	95.3
274.05 K, x1 = 0.19	96.98
274.05 K, x1 = 0.26	104.49
274.09 K, x1 = 0.15	93.83
274.2 K, x1 = 0.68	150.62
278.96 K, x1 = 0.26	105.81
278.97 K, x1 = 0.16	96.11
278.97 K, x1 = 0.19	98.13
279 K, x1 = 0.15	94.89
279.12 K, x1 = 0.68	152.9
280 K, x1 = 0.19	101.02
280.01 K, x1 = 0.26	109.42
280.15 K, x1 = 0.68	160.29
280.17 K, x1 = 0.15	97.81
280.17 K, x1 = 0.16	98.83
283.44 K, x1 = 0.19	101.31
283.44 K, x1 = 0.26	110.08
283.59 K, x1 = 0.68	160.86
283.61 K, x1 = 0.16	99.37
283.62 K, x1 = 0.15	98.08
283.88 K, x1 = 0.16	96.38
283.88 K, x1 = 0.19	97.85
283.88 K, x1 = 0.26	106.79
283.92 K, x1 = 0.15	95.42
284.02 K, x1 = 0.68	155.17
